Measurements: patent publication US10294202B2, “Pyrrolidinones as herbicides” (FMC Corporation, priority 2013, dated 2019)

Legend:
barnyardgrass [1] = test: Test A pre-/postemergence herbicide test; type: in vivo, Echinochloa crus-galli
Summary of the method: (§1)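 Formulated compound (non-phytotoxic solvent, surfactant) sprayed pre- onto soil of seeded loam/sand pots or post- onto seedlings at 1–2 leaves; ~10 d greenhouse; 0–100 visual control rating versus untreated.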

corn = test: Test A pre-/postemergence herbicide test; type: in vivo, Zea mays; conditions: Postemergence
Summary of the method: as §1

rice = test: Test B flooded paddy test; type: in vivo, Oryza sativa; conditions: 500 g ai/ha, Flood; scale of 0 to 100 where 0 is no effect and 100 is complete control
Summary of the method: (§2)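 First, plants reach the 2-leaf stage; next, pots are flooded to 3 cm and compound is delivered into the water; finally, after 13 to 15 greenhouse days at constant depth, injury is graded visually from 0 to 100 against controls.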

galium = test: Test A postemergence herbicide test; type: in vivo, Galium aparine
Summary of the method: (§3)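 Blackgrass and galium grown in pots of loam soil–sand blend, treated postemergence at 2–10 cm height, one- to two-leaf stage. Plants kept in greenhouse ~10 days, then visually rated for injury against untreated controls on a 0–100 scale (0 no effect, 100 complete control).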

ducksalad = test: Test B flooded paddy test; type: in vivo, Heteranthera limosa; conditions: 500 g ai/ha, Flood; scale of 0 to 100 where 0 is no effect and 100 is complete control
Summary of the method: as §2

kochia = test: Test A pre-/postemergence herbicide test; type: in vivo, Kochia scoparia
Summary of the method: as §1

pigweed = test: Test A pre-/postemergence herbicide test; type: in vivo, Amaranthus retroflexus
Summary of the method: as §1

barnyardgrass [2] = test: Test B flooded paddy test; type: in vivo, Echinochloa crus-galli; conditions: 500 g ai/ha, Flood; scale of 0 to 100 where 0 is no effect and 100 is complete control
Summary of the method: as §2

blackgrass = test: Test A postemergence herbicide test; type: in vivo, Alopecurus myosuroides
Summary of the method: as §3

ragweed = test: Test A pre-/postemergence herbicide test; type: in vivo, Ambrosia elatior
Summary of the method: as §1

sedge, umbrella = test: Test B flooded paddy test; type: in vivo, Cyperus difformis; conditions: 500 g ai/ha, Flood; scale of 0 to 100 where 0 is no effect and 100 is complete control
Summary of the method: as §2

ryegrass, Italian = test: Test A pre-/postemergence herbicide test; type: in vivo, Lolium multiflorum
Summary of the method: as §1

giant foxtail = test: Test A pre-/postemergence herbicide test; type: in vivo, Setaria faberii
Summary of the method: as §1

wheat = test: Test A pre-/postemergence herbicide test; type: in vivo, Triticum aestivum; conditions: Postemergence
Summary of the method: as §1

[3] = Postemergence, 125 g ai/ha, visual rating on 0 to 100 scale (0 no effect, 100 complete control), approx. 10 days
[4] = Postemergence, 500 g ai/ha, 0 to 100 scale (0 no effect, 100 complete control)
[5] = Preemergence, 125 g ai/ha, 0 to 100 scale where 0 is no effect and 100 is complete control
[6] = Preemergence, 500 g ai/ha, visual rating on 0 to 100 scale (0 no effect, 100 complete control)
[7] = 125 g ai/ha, visual rating on 0 to 100 scale (0 no effect, 100 complete control), approx. 10 days
[8] = 500 g ai/ha, 0 to 100 scale (0 no effect, 100 complete control)

Compound: O=C1NCC(c2cccc(-n3ccc(C(F)(F)F)n3)c2)C1C(=O)Nc1cccc(F)c1F (stereo not drawn) [Compound 326]
- Plant response rating, Barnyardgrass (barnyardgrass [1]; [3]): 0
- Plant response rating, Barnyardgrass (barnyardgrass [1]; [4]): 20
- Plant response rating, Barnyardgrass (barnyardgrass [1]; [5]): 0
- Barnyardgrass plant response rating (barnyardgrass [1]; [6]): 30
- Plant response rating, Corn (corn; [7]): 0
- Plant response rating, Corn (corn; [8]): 0
- Plant response rating, Rice (rice): 0
- Plant response rating, Galium (galium; [7]): 0
- Plant response rating, Galium (galium; [8]): 0
- Plant response rating, Ducksalad (ducksalad): 0
- Plant response rating, Kochia (kochia; [3]): 0
- Plant response rating, Kochia (kochia; [4]): 30
- Plant response rating, Kochia (kochia; [5]): 40
- Kochia plant response rating (kochia; [6]): 50
- Plant response rating, Pigweed (pigweed; [3]): 0
- Plant response rating, Pigweed (pigweed; [4]): 0
- Plant response rating, Pigweed (pigweed; [5]): 0
- Pigweed plant response rating (pigweed; [6]): 0
- Plant response rating, Barnyardgrass (barnyardgrass [2]): 0
- Plant response rating, Blackgrass (blackgrass; [7]): 0
- Plant response rating, Blackgrass (blackgrass; [8]): 0
- Plant response rating, Ragweed (ragweed; [3]): 0
- Plant response rating, Ragweed (ragweed; [4]): 0
- Plant response rating, Ragweed (ragweed; [5]): 0
- Ragweed plant response rating (ragweed; [6]): 0
- Plant response rating, Sedge, Umbrella (sedge, umbrella): 0
- Plant response rating, Ryegrass, Italian (ryegrass, Italian; [3]): 0
- Plant response rating, Ryegrass, Italian (ryegrass, Italian; [4]): 0
- Plant response rating, Ryegrass, Italian (ryegrass, Italian; [5]): 0
- Ryegrass, Italian plant response rating (ryegrass, Italian; [6]): 40
- Plant response rating, Foxtail, Giant (giant foxtail; [3]): 20
- Plant response rating, Foxtail, Giant (giant foxtail; [4]): 50
- Plant response rating, Foxtail, Giant (giant foxtail; [5]): 50
- Foxtail, Giant plant response rating (giant foxtail; [6]): 60
- Plant response rating, Wheat (wheat; [7]): 0
- Plant response rating, Wheat (wheat; [8]): 0

Compound: O=C1NCC(c2cccc(I)c2)C1C(=O)Nc1cccc(F)c1F (stereo not drawn) [Compound 327]
- Plant response rating, Barnyardgrass (barnyardgrass [1]; [3]): 40
- Plant response rating, Barnyardgrass (barnyardgrass [1]; [4]): 80
- Plant response rating, Barnyardgrass (barnyardgrass [1]; [5]): 70
- Barnyardgrass plant response rating (barnyardgrass [1]; [6]): 80
- Plant response rating, Corn (corn; [7]): 0
- Plant response rating, Corn (corn; [8]): 30
- Plant response rating, Rice (rice): 0
- Plant response rating, Galium (galium; [7]): 40
- Plant response rating, Galium (galium; [8]): 60
- Plant response rating, Ducksalad (ducksalad): 60
- Plant response rating, Kochia (kochia; [3]): 30
- Plant response rating, Kochia (kochia; [4]): 40
- Plant response rating, Kochia (kochia; [5]): 30
- Kochia plant response rating (kochia; [6]): 70
- Plant response rating, Pigweed (pigweed; [3]): 0
- Plant response rating, Pigweed (pigweed; [4]): 20
- Plant response rating, Pigweed (pigweed; [5]): 0
- Pigweed plant response rating (pigweed; [6]): 20
- Plant response rating, Barnyardgrass (barnyardgrass [2]): 0
- Plant response rating, Blackgrass (blackgrass; [7]): 30
- Plant response rating, Blackgrass (blackgrass; [8]): 40
- Plant response rating, Ragweed (ragweed; [3]): 0
- Plant response rating, Ragweed (ragweed; [4]): 20
- Plant response rating, Ragweed (ragweed; [5]): 20
- Ragweed plant response rating (ragweed; [6]): 30
- Plant response rating, Sedge, Umbrella (sedge, umbrella): 0
- Plant response rating, Ryegrass, Italian (ryegrass, Italian; [3]): 20
- Plant response rating, Ryegrass, Italian (ryegrass, Italian; [4]): 20
- Plant response rating, Ryegrass, Italian (ryegrass, Italian; [5]): 40
- Ryegrass, Italian plant response rating (ryegrass, Italian; [6]): 40
- Plant response rating, Foxtail, Giant (giant foxtail; [3]): 40
- Plant response rating, Foxtail, Giant (giant foxtail; [4]): 80
- Plant response rating, Foxtail, Giant (giant foxtail; [5]): 80
- Foxtail, Giant plant response rating (giant foxtail; [6]): 90
- Plant response rating, Wheat (wheat; [7]): 0
- Plant response rating, Wheat (wheat; [8]): 20

Compound: O=C1NCC(c2cccc(Oc3ccccc3)c2)C1C(=O)Nc1ccc(F)cc1F (stereo not drawn) [Compound 331]
- Plant response rating, Barnyardgrass (barnyardgrass [1]; [3]): 20
- Plant response rating, Barnyardgrass (barnyardgrass [1]; [4]): 70
- Plant response rating, Barnyardgrass (barnyardgrass [1]; [5]): 20
- Barnyardgrass plant response rating (barnyardgrass [1]; [6]): 80
- Plant response rating, Corn (corn; [7]): 0
- Plant response rating, Corn (corn; [8]): 0
- Plant response rating, Rice (rice): 0
- Plant response rating, Galium (galium; [7]): 0
- Plant response rating, Galium (galium; [8]): 30
- Plant response rating, Ducksalad (ducksalad): 65
- Plant response rating, Kochia (kochia; [3]): 0
- Plant response rating, Kochia (kochia; [4]): 20
- Plant response rating, Kochia (kochia; [5]): 0
- Kochia plant response rating (kochia; [6]): 0
- Plant response rating, Pigweed (pigweed; [3]): 0
- Plant response rating, Pigweed (pigweed; [4]): 0
- Plant response rating, Pigweed (pigweed; [5]): 0
- Pigweed plant response rating (pigweed; [6]): 20
- Plant response rating, Barnyardgrass (barnyardgrass [2]): 40
- Plant response rating, Blackgrass (blackgrass; [7]): 0
- Plant response rating, Blackgrass (blackgrass; [8]): 30
- Plant response rating, Ragweed (ragweed; [3]): 0
- Plant response rating, Ragweed (ragweed; [4]): 0
- Plant response rating, Ragweed (ragweed; [5]): 0
- Ragweed plant response rating (ragweed; [6]): 20
- Plant response rating, Sedge, Umbrella (sedge, umbrella): 0
- Plant response rating, Ryegrass, Italian (ryegrass, Italian; [3]): 0
- Plant response rating, Ryegrass, Italian (ryegrass, Italian; [4]): 0
- Plant response rating, Ryegrass, Italian (ryegrass, Italian; [5]): 0
- Ryegrass, Italian plant response rating (ryegrass, Italian; [6]): 20
- Plant response rating, Foxtail, Giant (giant foxtail; [3]): 20
- Plant response rating, Foxtail, Giant (giant foxtail; [4]): 80
- Plant response rating, Foxtail, Giant (giant foxtail; [5]): 50
- Foxtail, Giant plant response rating (giant foxtail; [6]): 90
- Plant response rating, Wheat (wheat; [7]): 0
- Plant response rating, Wheat (wheat; [8]): 0

Compound: CCN1CC(c2ccc(C(F)(F)F)cc2)C(C(=O)Nc2ccccc2F)C1=O (stereo not drawn) [Compound 335]
- Plant response rating, Barnyardgrass (barnyardgrass [1]; [3]): 20
- Plant response rating, Barnyardgrass (barnyardgrass [1]; [4]): 60
- Plant response rating, Barnyardgrass (barnyardgrass [1]; [5]): 0
- Barnyardgrass plant response rating (barnyardgrass [1]; [6]): 50
- Plant response rating, Corn (corn; [7]): 0
- Plant response rating, Corn (corn; [8]): 0
- Plant response rating, Rice (rice): 0
- Plant response rating, Galium (galium; [7]): 0
- Plant response rating, Galium (galium; [8]): 0
- Plant response rating, Ducksalad (ducksalad): 65
- Plant response rating, Kochia (kochia; [3]): 0
- Plant response rating, Kochia (kochia; [4]): 0
- Plant response rating, Kochia (kochia; [5]): 40
- Kochia plant response rating (kochia; [6]): 60
- Plant response rating, Pigweed (pigweed; [3]): 0
- Plant response rating, Pigweed (pigweed; [4]): 0
- Plant response rating, Pigweed (pigweed; [5]): 0
- Pigweed plant response rating (pigweed; [6]): 30
- Plant response rating, Barnyardgrass (barnyardgrass [2]): 0
- Plant response rating, Blackgrass (blackgrass; [7]): 0
- Plant response rating, Blackgrass (blackgrass; [8]): 20
- Plant response rating, Ragweed (ragweed; [3]): 0
- Plant response rating, Ragweed (ragweed; [4]): 0
- Plant response rating, Ragweed (ragweed; [5]): 0
- Ragweed plant response rating (ragweed; [6]): 0
- Plant response rating, Sedge, Umbrella (sedge, umbrella): 0
- Plant response rating, Ryegrass, Italian (ryegrass, Italian; [3]): 0
- Plant response rating, Ryegrass, Italian (ryegrass, Italian; [4]): 0
- Plant response rating, Ryegrass, Italian (ryegrass, Italian; [5]): 0
- Ryegrass, Italian plant response rating (ryegrass, Italian; [6]): 0
- Plant response rating, Foxtail, Giant (giant foxtail; [3]): 70
- Plant response rating, Foxtail, Giant (giant foxtail; [4]): 90
- Plant response rating, Foxtail, Giant (giant foxtail; [5]): 70
- Foxtail, Giant plant response rating (giant foxtail; [6]): 90
- Plant response rating, Wheat (wheat; [7]): 0
- Plant response rating, Wheat (wheat; [8]): 20
